Laboratory results: BigSolDB 2.1

Nc1cccc(Cl)c1C(=O)O
solubility (mole fraction)
Details | 278.15 K | 283.15 K | 288.15 K | 293.15 K | 298.15 K | 303.15 K | 308.15 K | 313.15 K | 318.15 K | 323.15 K
in NMP | 0.0744 | 0.0797 | 0.0873 | 0.0958 | 0.106 | 0.119 | 0.135 | 0.155 | 0.178 | 0.204
in acetonitrile | 0.00746 | 0.00991 | 0.0129 | 0.0166 | 0.0208 | 0.0259 | 0.0313 | 0.0377 | 0.045 | 0.0541
in cyclohexane | – | 4.1e-05 | 6e-05 | 8.7e-05 | 0.000115 | 0.000155 | 0.000205 | 0.000269 | 0.000344 | 0.000445
in ethanol | 0.0284 | 0.0346 | 0.0408 | 0.049 | 0.0584 | 0.0702 | 0.0831 | 0.1 | 0.119 | 0.141
in ethyl acetate | 0.0257 | 0.0303 | 0.036 | 0.0423 | 0.051 | 0.0612 | 0.0731 | 0.0867 | 0.103 | 0.122
in ethylene glycol | 0.0133 | 0.0175 | 0.0225 | 0.0283 | 0.0349 | 0.0423 | 0.0505 | 0.0601 | 0.071 | 0.0848
in isobutanol | 0.0106 | 0.0145 | 0.0189 | 0.0244 | 0.0308 | 0.0385 | 0.047 | 0.057 | 0.0677 | 0.0809
in isopropanol | 0.0195 | 0.0231 | 0.0276 | 0.0332 | 0.0399 | 0.0479 | 0.0571 | 0.0676 | 0.0819 | 0.0982
in n-butanol | 0.0172 | 0.0208 | 0.0248 | 0.03 | 0.0365 | 0.0439 | 0.053 | 0.0642 | 0.0786 | 0.0958
in n-heptanol | 0.00987 | 0.0135 | 0.0177 | 0.0225 | 0.0276 | 0.0338 | 0.0414 | 0.0507 | 0.0625 | 0.0776
in n-octanol | 0.00855 | 0.0118 | 0.0154 | 0.0194 | 0.0241 | 0.0301 | 0.0376 | 0.0476 | 0.0606 | 0.0753
in n-propanol | 0.0203 | 0.0248 | 0.0299 | 0.0353 | 0.0416 | 0.0498 | 0.0592 | 0.0718 | 0.0859 | 0.103
in toluene | 0.00446 | 0.00515 | 0.00616 | 0.0075 | 0.00924 | 0.0112 | 0.0133 | 0.0156 | 0.0179 | 0.0207
in water | 0.000571 | 0.000674 | 0.000801 | 0.000965 | 0.00116 | 0.0014 | 0.00169 | 0.00203 | 0.00247 | 0.00297
